Measured values from patent US20230141101A1, “PDE4 INHIBITOR COMPOUND AND MEDICAL USE THEREOF” (Suzhou Longbotai Pharmaceuticals Co., Ltd., priority 2020, published 2023).

Assays:
Type in all cases: biochemical
Settings in all cases: 20 nM
PDE4D2 = PDE4D2 (Homo sapiens, UniProt Q08499); assay: PDE4 inhibitory activity assay (FAM-cAMP enzymatic reaction), PDE4D2
In short: (§1)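 Inhibition rates from a fluorescence read gave IC50 values. Each enzyme (PDE4A1A, PDE4B1, PDE4D2) sat with compound for 15 min at room temperature; FAM-cAMP then started a 30 min room-temperature reaction, ended with stop solution and left 60 min more.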

PDE4A1A = biological target: T1, PDE4A1A (Homo sapiens, UniProt P27815); assay: PDE4 inhibitory activity assay (FAM-cAMP enzymatic reaction), PDE4A1A
T1 construct: purchased BPS 60040
T1 sequence (P27815 1-647 isoform P27815-4): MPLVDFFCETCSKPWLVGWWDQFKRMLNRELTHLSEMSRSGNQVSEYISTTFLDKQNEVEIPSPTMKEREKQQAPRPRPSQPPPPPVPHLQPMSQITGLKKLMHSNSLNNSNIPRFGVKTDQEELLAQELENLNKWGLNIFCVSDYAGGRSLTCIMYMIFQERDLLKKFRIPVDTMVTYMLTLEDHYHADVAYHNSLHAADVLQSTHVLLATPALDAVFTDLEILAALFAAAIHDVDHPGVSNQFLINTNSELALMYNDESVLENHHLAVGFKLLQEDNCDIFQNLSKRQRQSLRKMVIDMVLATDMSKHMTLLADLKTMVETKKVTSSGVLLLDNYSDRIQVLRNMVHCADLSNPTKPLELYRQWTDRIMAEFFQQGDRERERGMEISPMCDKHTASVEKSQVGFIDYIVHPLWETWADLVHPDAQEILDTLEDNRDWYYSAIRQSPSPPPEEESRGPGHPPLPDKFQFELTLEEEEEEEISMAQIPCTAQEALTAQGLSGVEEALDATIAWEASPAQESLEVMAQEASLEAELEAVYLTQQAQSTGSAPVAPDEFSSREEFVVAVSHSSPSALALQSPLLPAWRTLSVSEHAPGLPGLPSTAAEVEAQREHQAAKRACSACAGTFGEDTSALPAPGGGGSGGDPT
In short: as §1

PDE4B1 = biological target: T2, PDE4B1 (Homo sapiens, UniProt Q07343); assay: PDE4 inhibitory activity assay (FAM-cAMP enzymatic reaction), PDE4B1
T2 construct: purchased BPS 60041
T2 sequence (Q07343 whole entry): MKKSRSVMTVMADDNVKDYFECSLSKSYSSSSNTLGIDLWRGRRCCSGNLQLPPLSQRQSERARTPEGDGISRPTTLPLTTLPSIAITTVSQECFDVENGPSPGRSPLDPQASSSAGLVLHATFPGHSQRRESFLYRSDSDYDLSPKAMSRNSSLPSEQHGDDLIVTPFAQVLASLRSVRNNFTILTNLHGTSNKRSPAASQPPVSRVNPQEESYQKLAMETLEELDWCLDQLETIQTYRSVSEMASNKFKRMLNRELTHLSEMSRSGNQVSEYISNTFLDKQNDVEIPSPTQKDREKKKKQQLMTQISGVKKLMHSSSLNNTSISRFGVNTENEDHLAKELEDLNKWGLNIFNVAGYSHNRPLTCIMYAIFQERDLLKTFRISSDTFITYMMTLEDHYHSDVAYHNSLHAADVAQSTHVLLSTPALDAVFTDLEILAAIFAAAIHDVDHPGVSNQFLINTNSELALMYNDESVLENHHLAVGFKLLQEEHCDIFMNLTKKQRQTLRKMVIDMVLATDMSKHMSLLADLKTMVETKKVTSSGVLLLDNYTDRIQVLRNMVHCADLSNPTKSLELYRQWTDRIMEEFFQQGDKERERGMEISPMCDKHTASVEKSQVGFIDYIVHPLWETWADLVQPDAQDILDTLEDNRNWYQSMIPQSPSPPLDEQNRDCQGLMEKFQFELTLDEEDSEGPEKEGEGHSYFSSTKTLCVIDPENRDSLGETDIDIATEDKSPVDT
In short: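 Each isoform is incubated with test compound for 15 min at room temperature before FAM-cAMP substrate starts a 30-min reaction.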

PDE4D2, sequence (Q08499 303-809): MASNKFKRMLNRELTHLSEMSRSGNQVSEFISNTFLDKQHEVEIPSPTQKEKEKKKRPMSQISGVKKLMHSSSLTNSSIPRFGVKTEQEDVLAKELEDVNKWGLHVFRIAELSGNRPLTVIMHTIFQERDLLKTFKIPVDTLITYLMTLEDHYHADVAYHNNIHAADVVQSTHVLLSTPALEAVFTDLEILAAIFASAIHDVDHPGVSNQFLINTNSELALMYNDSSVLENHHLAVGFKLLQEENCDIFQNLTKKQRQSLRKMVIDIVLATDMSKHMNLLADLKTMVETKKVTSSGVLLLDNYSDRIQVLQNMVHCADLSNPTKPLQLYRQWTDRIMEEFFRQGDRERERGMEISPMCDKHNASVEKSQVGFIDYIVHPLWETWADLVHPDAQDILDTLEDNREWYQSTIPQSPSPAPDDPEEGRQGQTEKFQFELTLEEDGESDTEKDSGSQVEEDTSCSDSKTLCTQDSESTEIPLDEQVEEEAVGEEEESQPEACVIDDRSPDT

Compound	PDE4 D2 inhibitory effect at 20 nM (PDE4D2)	PDE4 A1 inhibitory effect at 20 nM (PDE4A1A)	PDE4 B1 inhibitory effect at 20 nM (PDE4B1)
CCOc1nc([C@@H](CS(C)(=O)=O)n2c(=O)n(C)c3cc(-c4c(C)cccc4C)cnc32)ccc1OC [Ex. 106, (S)-6-(2,6-dimethylphenyl)-3-(1-(6-ethoxy-5-methoxypyridin-2-yl)-2-(methylsulfonyl)ethyl)-1-methyl-1H-imidazo[4,5-b]pyridin-2(3H)-one]	+	+	+
CCOc1nc([C@@H](CS(C)(=O)=O)n2c(=O)[nH]c3cc(-c4ccc(F)cc4C)cnc32)ccc1OC [Ex. 107, (S)-6-(4-fluoro-2-methylphenyl)-3-(1-(6-ethoxy-5-methoxypyridin-2-yl)-2-(methylsulfonyl)ethyl)-1H-imidazo[4,5-b]pyridin-2(3H)-one]	+	+	+
CCOc1nc([C@@H](CS(C)(=O)=O)n2c(=O)n(C)c3cc(-c4ccc(F)cc4C)cnc32)ccc1OC [Ex. 108, (S)-6-(4-fluoro-2-methylphenyl)-3-(1-(6-ethoxy-5-methoxypyridin-2-yl)-2-(methylsulfonyl)ethyl)-1-methyl-1H-imidazo[4,5-b]pyridin-2(3H)-one]	+	+	+
CCOc1nc([C@@H](CS(C)(=O)=O)n2c(=O)[nH]c3cc(-c4cc(F)ccc4C)cnc32)ccc1OC [Ex. 109, (S)-6-(5-fluoro-2-methylphenyl)-3-(1-(6-ethoxy-5-methoxypyridin-2-yl)-2-(methylsulfonyl)ethyl)-1H-imidazo[4,5-b]pyridin-2(3H)-one]	+	+	+
CCOc1nc([C@@H](CS(C)(=O)=O)n2c(=O)n(C)c3cc(-c4cc(F)ccc4C)cnc32)ccc1OC [Ex. 110, (S)-6-(5-fluoro-2-methylphenyl)-3-(1-(6-ethoxy-5-methoxypyridin-2-yl)-2-(methylsulfonyl)ethyl)-1-methyl-1H-imidazo[4,5-b]pyridin-2(3H)-one]	+	+	+
CCOc1nc([C@@H](CS(C)(=O)=O)n2c(=O)[nH]c3cc(-c4cccc(F)c4C)cnc32)ccc1OC [Ex. 111, (S)-6-(3-fluoro-2-methylphenyl)-3-(1-(6-ethoxy-5-methoxypyridin-2-yl)-2-(methylsulfonyl)ethyl)-1H-imidazo[4,5-b]pyridin-2(3H)-one]	+	+	+
CCOc1nc([C@@H](CS(C)(=O)=O)n2c(=O)n(C)c3cc(-c4cccc(F)c4C)cnc32)ccc1OC [Ex. 112, (S)-6-(3-fluoro-2-methylphenyl)-3-(1-(6-ethoxy-5-methoxypyridin-2-yl)-2-(methylsulfonyl)ethyl)-1-methyl-1H-imidazo[4,5-b]pyridin-2(3H)-one]	+	+	+
CCOc1nc([C@@H](CS(C)(=O)=O)n2c(=O)[nH]c3cc(-c4cc(C)ccc4F)cnc32)ccc1OC [Ex. 113, (S)-6-(2-fluoro-5-methylphenyl)-3-(1-(6-ethoxy-5-methoxypyridin-2-yl)-2-(methylsulfonyl)ethyl)-1H-imidazo[4,5-b]pyridin-2(3H)-one]	+	+	+
CCOc1nc([C@@H](CS(C)(=O)=O)n2c(=O)n(C)c3cc(-c4cc(C)ccc4F)cnc32)ccc1OC [Ex. 114, (S)-6-(2-fluoro-5-methylphenyl)-3-(1-(6-ethoxy-5-methoxypyridin-2-yl)-2-(methylsulfonyl)ethyl)-1-methyl-1H-imidazo[4,5-b]pyridin-2(3H)-one]	+	+	+
CCOc1nc([C@@H](CS(C)(=O)=O)n2c(=O)[nH]c3cc(-c4ccc(C)cc4F)cnc32)ccc1OC [Ex. 115]	+	+	+

The next lines start with the values.

PDE4 D2 inhibitory effect at 20 nM (PDE4D2)	PDE4 A1 inhibitory effect at 20 nM (PDE4A1A)	PDE4 B1 inhibitory effect at 20 nM (PDE4B1)	Compound
+	+	+	CCOc1nc([C@@H](CS(C)(=O)=O)n2c(=O)n(C)c3cc(-c4ccc(C)cc4F)cnc32)ccc1OC [Ex. 116, (S)-6-(2-fluoro-4-methylphenyl)-3-(1-(6-ethoxy-5-methoxypyridin-2-yl)-2-(methylsulfonyl)ethyl)-1-methyl-1H-imidazo[4,5-b]pyridin-2(3H)-one]
+	+	+	CCOc1nc([C@@H](CS(C)(=O)=O)n2c(=O)[nH]c3cc(-c4cc(F)ccc4OC)cnc32)ccc1OC [Ex. 117, (S)-6-(5-fluoro-2-methoxyphenyl)-3-(1-(6-ethoxy-5-methoxypyridin-2-yl)-2-(methylsulfonyl)ethyl)-1H-imidazo[4,5-b]pyridin-2(3H)-one]
+	+	+	CCOc1nc([C@@H](CS(C)(=O)=O)n2c(=O)n(C)c3cc(-c4cc(F)ccc4OC)cnc32)ccc1OC [Ex. 118, (S)-6-(5-fluoro-2-methoxyphenyl)-3-(1-(6-ethoxy-5-methoxypyridin-2-yl)-2-(methylsulfonyl)ethyl)-1-methyl-1H-imidazo[4,5-b]pyridin-2(3H)-one]
+	+	+	CCOc1nc([C@@H](CS(C)(=O)=O)n2c(=O)[nH]c3cc(-c4ccc(F)cc4OC)cnc32)ccc1OC [Ex. 119, (S)-6-(4-fluoro-2-methoxyphenyl)-3-(1-(6-ethoxy-5-methoxypyridin-2-yl)-2-(methylsulfonyl)ethyl)-1H-imidazo[4,5-b]pyridin-2(3H)-one]
+	+	+	CCOc1nc([C@@H](CS(C)(=O)=O)n2c(=O)n(C)c3cc(-c4ccc(F)cc4OC)cnc32)ccc1OC [Ex. 120, (S)-6-(4-fluoro-2-methoxyphenyl)-3-(1-(6-ethoxy-5-methoxypyridin-2-yl)-2-(methylsulfonyl)ethyl)-1-methyl-1H-imidazo[4,5-b]pyridin-2(3H)-one]
+	+	+	CCOc1nc([C@@H](CS(C)(=O)=O)n2c(=O)[nH]c3cc(-c4c(F)cccc4OC)cnc32)ccc1OC [Ex. 121, (S)-6-(6-fluoro-2-methoxyphenyl)-3-(1-(6-ethoxy-5-methoxypyridin-2-yl)-2-(methylsulfonyl)ethyl)-1H-imidazo[4,5-b]pyridin-2(3H)-one]
+	+	+	CCOc1nc([C@@H](CS(C)(=O)=O)n2c(=O)[nH]c3cc(-c4ccccn4)cnc32)ccc1OC [Ex. 122, (S)-6-(pyridin-2-yl)-3-(1-(6-ethoxy-5-methoxypyridin-2-yl)-2-(methylsulfonyl)ethyl)-1H-imidazo[4,5-b]pyridin-2(3H)-one]
+	+	+	CCOc1nc([C@@H](CS(C)(=O)=O)n2c(=O)n(C)c3cc(-c4ccccn4)cnc32)ccc1OC [Ex. 123, (S)-3-(1-(6-ethoxy-5-methoxypyridin-2-yl)-2-(methylsulfonyl)ethyl)-1-methyl-6-(pyridin-2-yl)-1H-imidazo[4,5-b]pyridin-2(3H)-one]
+	+	+	CCOc1nc([C@@H](CS(C)(=O)=O)n2c(=O)n(CC)c3cc(-c4ccccn4)cnc32)ccc1OC [Ex. 124, (S)-3-(1-(6-ethoxy-5-methoxypyridin-2-yl)-2-(methylsulfonyl)ethyl)-1-ethyl-6-(pyridin-2-yl)-1H-imidazo[4,5-b]pyridin-2(3H)-one]
+	+	+	CCOc1nc([C@@H](CS(C)(=O)=O)n2c(=O)n(CCOC)c3cc(-c4ccccn4)cnc32)ccc1OC [Ex. 125, (S)-3-(1-(6-ethoxy-5-methoxypyridin-2-yl)-2-(methylsulfonyl)ethyl)-1-(2-methoxyethyl)-6-(pyridin-2-yl)-1H-imidazo[4,5-b]pyridin-2(3H)-one]
+	+	+	CCOc1nc([C@@H](CS(C)(=O)=O)n2c(=O)n(C)c3cc(-c4ccccc4F)cnc32)ccc1OC [Ex. 126, (S)-3-(1-(6-ethoxy-5-methoxypyridin-2-yl)-2-(methylsulfonyl)ethyl)-6-(2-fluorophenyl)-1-methyl-1H-imidazo[4,5-b]pyridin-2(3H)-one]
+	+	+	CCOc1nc([C@@H](CS(C)(=O)=O)n2c(=O)n(C)c3cc(-c4ccc(F)cc4)cnc32)ccc1OC [Ex. 128, (S)-3-(1-(6-ethoxy-5-methoxypyridin-2-yl)-2-(methylsulfonyl)ethyl)-6-(4-fluorophenyl)-1-methyl-1H-imidazo[4,5-b]pyridin-2(3H)-one]
+	+	+	CCOc1nc([C@@H](CS(C)(=O)=O)n2c(=O)[nH]c3cc(Br)ccc32)ccc1OC [Ex. 129, (S)-5-bromo-1-(1-(6-ethoxy-5-methoxypyridin-2-yl)-2-(methylsulfonyl)ethyl)-1H-benzo[d]imidazol-2(3H)-one]
